Data as given in patent US20210122730A1, “GLUCOCORTICOID RECEPTOR MODULATORS” (ORIC Pharmaceuticals, Inc., priority 2017, published 2021).

molecular target: T1, PR (Homo sapiens, UniProt P06401); test: In Vitro PR Luciferase Reporter Assay (antagonist mode, CHO-K1-PR-MMTV-Luc reporter cells); format: cell-based; details: antagonist assay with 20 nM Progesterone, 18-24 hours, read-out: PR antagonism IC50
T1 construct: expressed in transfected cells; host or cells: CHO-K1
T1 sequence (P06401 1-933): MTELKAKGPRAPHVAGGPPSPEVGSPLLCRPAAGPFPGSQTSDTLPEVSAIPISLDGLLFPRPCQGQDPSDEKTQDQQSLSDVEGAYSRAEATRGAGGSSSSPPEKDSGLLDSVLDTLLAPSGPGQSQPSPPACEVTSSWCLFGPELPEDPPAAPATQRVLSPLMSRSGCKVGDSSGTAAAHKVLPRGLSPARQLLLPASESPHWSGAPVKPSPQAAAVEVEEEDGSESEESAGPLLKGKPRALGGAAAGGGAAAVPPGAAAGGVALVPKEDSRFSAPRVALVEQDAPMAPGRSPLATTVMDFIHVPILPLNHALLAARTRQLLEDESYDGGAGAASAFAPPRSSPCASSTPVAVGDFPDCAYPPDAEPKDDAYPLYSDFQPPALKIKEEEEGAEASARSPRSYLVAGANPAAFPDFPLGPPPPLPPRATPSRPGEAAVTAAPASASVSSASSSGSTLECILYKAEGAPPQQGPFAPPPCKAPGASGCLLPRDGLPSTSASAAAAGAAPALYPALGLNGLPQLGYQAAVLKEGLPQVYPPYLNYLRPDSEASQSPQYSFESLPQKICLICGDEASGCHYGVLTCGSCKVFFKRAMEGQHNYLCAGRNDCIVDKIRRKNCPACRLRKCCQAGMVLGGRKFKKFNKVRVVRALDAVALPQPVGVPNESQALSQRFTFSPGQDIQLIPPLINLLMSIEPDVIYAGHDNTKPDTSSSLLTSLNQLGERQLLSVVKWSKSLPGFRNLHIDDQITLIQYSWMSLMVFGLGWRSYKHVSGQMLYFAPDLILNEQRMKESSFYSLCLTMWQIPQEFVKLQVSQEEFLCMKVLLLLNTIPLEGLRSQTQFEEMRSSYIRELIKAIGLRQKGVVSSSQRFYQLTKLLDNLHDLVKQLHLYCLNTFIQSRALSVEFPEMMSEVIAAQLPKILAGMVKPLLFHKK
From the text: Example C: In Vitro PR Luciferase Reporter Assay
Cell Line: CHO-KI-PR-MMTV-Luc reporter cells
Culture Media: DMEM (with phenol red)+1000FBS
Assay Media: DMEM (without phenol red)+1000CSS
Culture CHO-Kl-PR-MMTV-Luc reporter cells in 15 cm plates in Culture Media at conditions less than 90% confluence.
Prepared 200×DMSO 1:8 serial dilutions of control and test compounds in 96-well non-sterile V bottom plate in DMSO, 8 serial dilutions for each compound.
Prepared 5× Assay Media diluted compound serial dilutions in 96-well non-sterile V bottom plate: Add 97.5 μL/well of Assay Media into 96-well then add 2.5 μl of 200× concentration of compounds and mix well.
Added compounds: 5 μl of assay media diluted compounds were added to appropriate wells and followed a quick spin (1000 rpm, 10 sec) to bring media and cells to the bottom of plate. The plates were covered with SealMate film to avoid evaporation and placed in 37° C. incubator for approximately 18-24 hours.
Read plates: Equilibrated appropriate amount of Promega One-Glo luciferase reagent to room temperature. Removed the plates from incubator and added 25 μL of One-Glo luciferase reagent/well by multiple channel pipette and read the plates with Tecan F500 luminometer within 3 minutes.
The ability of exemplary compounds disclosed herein to inhibit PR activity was quantified and the respective IC50 value was determined. Table 4 provides the cellular IC50 values of exemplary compounds disclosed herein.

Row | Compound | IC50 [µM]
1 | CN([C@H]1CCC2=Cc3c(cnn3-c3ccc(F)cc3)C[C@]2(C(=O)c2cc(C(F)(F)F)ccn2)C1)S(=O)(=O)c1ccc(F)cc1 [Example 5, 4-Fluoro-N-((4aS,6S)-1-(4-fluorophenyl)-4a-(4-(trifluoromethyl)picolinoyl)-4,4a,5,6,7,8-hexahydro-1H-benzo[f]indazol-6-yl)-N-methylbenzenesulfonamide] | > 5
2 | CN([C@H]1CCC2=Cc3c(cnn3-c3ccc(F)cc3)C[C@]2(C(=O)c2cc(C(F)(F)F)ccn2)C1)S(=O)(=O)c1ccn(C)n1 [Example 98, N-((4aS,6S)-1-(4-fluorophenyl)-4a-(4-(trifluoromethyl)picolinoyl)-4,4a,5,6,7,8-hexahydro-1H-benzo[f]indazol-6-yl)-N,1-dimethyl-1H-pyrazole-3-sulfonamide] | 3.47
3 | Cn1ccc(S(=O)(=O)N(CC(F)(F)F)[C@H]2CCC3=Cc4c(cnn4-c4ccc(F)cc4)C[C@]3(C(=O)c3cc(C(F)(F)F)ccn3)C2)n1 [Example 111, N-((4aS,6S)-1-(4-Fluorophenyl)-4a-(4-(trifluoromethyl)picolinoyl)-4,4a,5,6,7,8-hexahydro-1H-benzo[f]indazol-6-yl)-1-methyl-N-(2,2,2-trifluoroethyl)-1H-pyrazole-3-sulfonamide] | > 5
4 | Cn1ccc(S(=O)(=O)[C@H]2CCC3=Cc4c(cnn4-c4ccc(F)cc4)C[C@]3(C(=O)c3cc(C(F)(F)F)ccn3)C2)n1 [Example 113, ((4aS,6S)-1-(4-Fluorophenyl)-6-((1-methyl-1H-pyrazol-3-yl)sulfonyl)-1,4,5,6,7,8-hexahydro-4aH-benzo[f]indazol-4a-yl)(4-(trifluoromethyl)pyridin-2-yl)methanone] | > 5
5 | Cn1ccc(S(=O)(=O)N(C2CC2)[C@H]2CCC3=Cc4c(cnn4-c4ccc(F)cc4)C[C@]3(C(=O)c3cc(C(F)(F)F)ccn3)C2)n1 [Example 138, N-cyclopropyl-N-((4aS,6S)-1-(4-fluorophenyl)-4a-(4-(trifluoromethyl)picolinoyl)-4,4a,5,6,7,8-hexahydro-1H-benzo[f]indazol-6-yl)-1-methyl-1H-pyrazole-3-sulfonamide] | > 5
6 | O=C(c1ncc(C(F)(F)F)s1)[C@]12Cc3cnn(-c4ccc(F)cc4)c3C=C1CC[C@H](N(C1CC1)S(=O)(=O)c1ccc(F)cc1)C2 [Example 177, N-cyclopropyl-4-fluoro-N-((4aS,6S)-1-(4-fluorophenyl)-4a-(5-(trifluoromethyl)thiazole-2-carbonyl)-4,4a,5,6,7,8-hexahydro-1H-benzo[f]indazol-6-yl)benzenesulfonamide] | > 5
7 | Cn1ccc(S(=O)(=O)N(CC2CC2)[C@H]2CCC3=Cc4c(cnn4-c4ccc(F)cc4)C[C@]3(C(=O)c3ncc(C(F)(F)F)s3)C2)n1 [Example 179, N-(cyclopropylmethyl)-N-((4aS,6S)-1-(4-fluorophenyl)-4a-(5-(trifluoromethyl)thiazole-2-carbonyl)-4,4a,5,6,7,8-hexahydro-1H-benzo[f]indazol-6-yl)-1-methyl-1H-pyrazole-3-sulfonamide] | > 5

Continued, values first:

Row | IC50 [µM] | Compound
8 | > 5 | Cn1cc(S(=O)(=O)C[C@H]2CCC3=Cc4c(cnn4-c4ccc(F)cc4)C[C@]3(C(=O)c3cc(C(F)(F)F)ccn3)C2)cn1 (single isomer, unassigned) [Example 118]
9 | > 5 | Cn1cc(S(=O)(=O)N(C2CC2)[C@H]2CCC3=Cc4c(cnn4-c4ccc(F)cc4)C[C@]3(C(=O)c3cc(C(F)(F)F)ccn3)C2)cn1 [Example 88, N-cyclopropyl-N-((4aS,6S)-1-(4-fluorophenyl)-4a-(4-(trifluoromethyl)picolinoyl)-4,4a,5,6,7,8-hexahydro-1H-benzo[f]indazol-6-yl)-1-methyl-1H-pyrazole-4-sulfonamide]
10 | > 5 | Cn1cc(S(=O)(=O)N(CC2CC2)[C@H]2CCC3=Cc4c(cnn4-c4ccc(F)cc4)C[C@]3(C(=O)c3cc(C(F)(F)F)ccn3)C2)cn1 [Example 103, N-(cyclopropylmethyl)-N-((4aS,6S)-1-(4-fluorophenyl)-4a-(4-(trifluoromethyl)picolinoyl)-4,4a,5,6,7,8-hexahydro-1H-benzo[f]indazol-6-yl)-1-methyl-1H-pyrazole-4-sulfonamide]
